System: water-injected control oocytes
Assay: TEVC of water-injected control oocytes (endogenous current, EM)
Format: cell-based, Xenopus laevis
Experimental: TEVC recording was performed at room temperature with an OC-725C amplifier (Warner Instruments, Hamden, Conn.) and pClamp10.2 software (Molecular Devices, Sunnyvale, Calif.) 3-5 days after cRNA injection as described in the section above. Oocytes were placed in a small-volume oocyte bath (Warner) and viewed with a dissection microscope. Chemicals were sourced from Sigma. Bath solution was (in mM): 96 NaCl, 4 KCl, 1 MgCl2, 1 CaCl2. 10 HEPES (pH 7.6). […] MTX (DMSO), sorbic acid (ethanol), and glutaconic acid (molecular grade H2O) were stored at −20° C. as 1 M stocks. Oleamide was stored as a 1 mM stock in ethanol at 4° C. […] Currents were recorded in response to pulses between −80 and +40 mV at 20 mV intervals, or a single pulse to +40 mV, from a holding potential of −80 mV, to yield current-voltage relationships, current magnitude, and for quantifying activation rate. […]
TEVC recording was performed at room temperature using a OC-725C amplifier (Warner Instruments, Hamden, Conn.) and pClamp8 software (Molecular Devices, Sunnyvale, Calif.) 2-5 days after cRNA injection as described in the section above. […] Currents were recorded in response to pulses between −80 mV and +40 mV at 20 mV intervals, or a single pulse to +40 mV, from a holding potential of −80 mV, to yield current-voltage relationships, current magnitude, and for quantifying activation rate. […]

| SMILES | effect on endogenous current or EM of water-injected control oocytes |
| --- | --- |
| NCC1(CC(=O)O)CCCCC1 [gabapentin, reference compound] | no effect |
| CC(=O)c1c(O)c(C)c(O)c(Cc2c(O)c3c(c(C(=O)/C=C/c4ccccc4)c2O)OC(C)(C)C=C3)c1O [MTX, mallotoxin] | no effect |

— patent US12268683B2, “Compounds and methods for synergistic activation of M channels” (THE REGENTS OF THE UNIVERSITY OF CALIFORNIA, priority 2018, dated 2025)
